13 molecules from ChEMBL document CHEMBL1142902, “Inhibition of FLT3 and PDGFR tyrosine kinase activity by bis(benzo[b]furan-2-yl)methanones” (Bioorg Med Chem, 2007) can be followed below.

The target in test [1] is Platelet-derived growth factor receptor beta (Mus musculus, UniProt P05622). Put plainly: Inhibition of endogenous PDGFRbeta autophosphorylation in Swiss 3T3 fibroblasts.
Test [2] concerns the target T1, Receptor-type tyrosine-protein kinase FLT3 (Homo sapiens, UniProt P36888).
T1 sequence (P36888 whole entry): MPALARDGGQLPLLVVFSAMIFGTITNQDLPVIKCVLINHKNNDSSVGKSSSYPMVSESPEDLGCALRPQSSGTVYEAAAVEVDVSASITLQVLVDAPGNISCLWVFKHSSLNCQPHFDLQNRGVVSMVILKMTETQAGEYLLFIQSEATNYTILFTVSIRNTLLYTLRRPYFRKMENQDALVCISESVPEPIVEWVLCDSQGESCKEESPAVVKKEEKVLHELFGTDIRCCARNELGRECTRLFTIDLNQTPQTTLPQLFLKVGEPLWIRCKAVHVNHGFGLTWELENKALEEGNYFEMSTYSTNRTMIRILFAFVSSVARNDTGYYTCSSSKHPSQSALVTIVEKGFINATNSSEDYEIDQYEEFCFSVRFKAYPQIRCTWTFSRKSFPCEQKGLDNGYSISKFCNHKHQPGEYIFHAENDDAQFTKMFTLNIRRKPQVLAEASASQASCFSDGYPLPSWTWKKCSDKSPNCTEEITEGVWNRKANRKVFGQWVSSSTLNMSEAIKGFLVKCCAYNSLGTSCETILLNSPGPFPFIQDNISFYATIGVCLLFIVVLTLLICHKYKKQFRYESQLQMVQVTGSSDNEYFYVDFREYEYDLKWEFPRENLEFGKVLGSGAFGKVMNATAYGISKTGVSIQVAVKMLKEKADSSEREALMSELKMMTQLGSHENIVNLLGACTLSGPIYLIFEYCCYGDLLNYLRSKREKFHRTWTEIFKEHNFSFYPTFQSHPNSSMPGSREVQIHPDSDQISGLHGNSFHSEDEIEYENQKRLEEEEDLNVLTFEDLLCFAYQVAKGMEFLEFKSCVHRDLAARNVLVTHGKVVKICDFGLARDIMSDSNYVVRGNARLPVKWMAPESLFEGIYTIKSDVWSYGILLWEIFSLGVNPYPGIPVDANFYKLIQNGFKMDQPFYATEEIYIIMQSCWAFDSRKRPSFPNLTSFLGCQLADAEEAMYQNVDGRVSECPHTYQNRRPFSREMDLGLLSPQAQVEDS
As to the kind of experiment: Inhibition of endogenous FLT3 autophosphorylation in EOL1 cells. Type of test: cell-based.

Some results are limits rather than exact numbers.

Sequence of Platelet-derived growth factor receptor beta (P05622 whole entry): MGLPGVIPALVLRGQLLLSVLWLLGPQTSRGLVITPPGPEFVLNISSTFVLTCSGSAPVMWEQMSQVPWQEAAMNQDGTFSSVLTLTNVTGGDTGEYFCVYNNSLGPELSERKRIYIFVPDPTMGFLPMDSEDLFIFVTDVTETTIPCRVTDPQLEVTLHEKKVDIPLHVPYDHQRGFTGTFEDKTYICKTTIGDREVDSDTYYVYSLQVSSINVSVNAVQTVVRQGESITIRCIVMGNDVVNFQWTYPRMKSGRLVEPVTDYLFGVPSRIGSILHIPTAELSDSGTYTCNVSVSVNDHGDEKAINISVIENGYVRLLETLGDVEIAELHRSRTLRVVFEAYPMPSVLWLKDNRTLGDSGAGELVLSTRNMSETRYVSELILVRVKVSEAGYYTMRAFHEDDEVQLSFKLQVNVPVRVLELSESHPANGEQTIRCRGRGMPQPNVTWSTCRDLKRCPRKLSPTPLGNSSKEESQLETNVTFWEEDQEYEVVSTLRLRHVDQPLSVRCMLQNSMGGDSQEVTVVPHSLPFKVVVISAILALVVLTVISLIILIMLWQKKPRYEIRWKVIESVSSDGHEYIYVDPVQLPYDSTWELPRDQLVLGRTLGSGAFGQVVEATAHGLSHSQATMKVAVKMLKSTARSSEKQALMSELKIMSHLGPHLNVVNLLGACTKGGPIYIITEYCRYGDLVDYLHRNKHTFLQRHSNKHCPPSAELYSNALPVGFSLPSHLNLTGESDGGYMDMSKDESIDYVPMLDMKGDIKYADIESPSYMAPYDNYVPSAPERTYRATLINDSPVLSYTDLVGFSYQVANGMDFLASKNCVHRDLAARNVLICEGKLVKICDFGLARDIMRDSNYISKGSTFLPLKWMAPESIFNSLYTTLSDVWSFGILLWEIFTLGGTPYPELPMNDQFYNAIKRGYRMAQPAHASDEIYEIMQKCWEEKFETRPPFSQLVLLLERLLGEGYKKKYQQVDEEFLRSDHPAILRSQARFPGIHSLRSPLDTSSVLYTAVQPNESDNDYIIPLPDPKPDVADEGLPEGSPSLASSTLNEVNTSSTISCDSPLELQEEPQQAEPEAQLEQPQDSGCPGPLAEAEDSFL

With `O=C(c1cc2ccccc2[nH]1)c1cc2ccccc2o1`, the IC50 (usually the concentration that inhibits the measured activity by half) in test [1] was determined as 1.07 µM. The same measure, in the same setting: to `Cc1cc2ncc(-c3ccccc3)nc2cc1C` [AG1295] belongs 5.4 µM. As to `CC(=O)Oc1ccc2oc(C(=O)c3cc4cc(OC(C)=O)ccc4o3)cc2c1`, in test [1], the IC50 was 0.7 µM. Molecule `O=C(c1cc2cc(O)ccc2[nH]1)c1cc2cc(O)ccc2o1` gave an IC50 in test [1] of 0.2 µM. On the same count and under the same terms, to `Nc1ccc2oc(C(=O)c3cc4cc(N)ccc4o3)cc2c1` belongs 1.2 µM. Take `COc1ccc2oc(C(=O)c3cc4cc(OC)ccc4o3)cc2c1`: the IC50 was 1 µM in test [1] and over 30 µM in test [2]. Regarding `COc1cccc2oc(C(=O)c3cc4c(OC)cccc4o3)cc12`, the IC50 in test [1] and in test [2] was over 30 µM in each case. As for `O=C(c1cc2cccc(O)c2o1)c1cc2cccc(O)c2o1`, the IC50 in test [1] was 20 µM; in test [2], over 30 µM.

`COc1ccc2cc(C(=O)c3cc4ccc(OC)cc4o3)oc2c1`: the IC50 in test [1] and in test [2] was over 30 µM throughout. As to `O=C(c1cc2ccccc2o1)c1cc2ccccc2o1`, half-maximal inhibition in test [1] (IC50) was put at 1.2 µM. The same measure, in the same setting: to `O=C(c1cc2ccc(O)cc2o1)c1cc2ccc(O)cc2o1` belongs 9.7 µM. In test [1], `O=C(c1cc2cc(O)ccc2o1)c1cc2cc(O)ccc2o1` yielded an IC50 of 0.6 µM.

For `COc1cccc2cc(C(=O)c3cc4cccc(OC)c4o3)oc12`, the IC50 in test [1] and in test [2] was over 30 µM each time.
